Assay results as given in paper PMC7351026, “Serum Half-Lives for Short- and Long-Chain Perfluoroalkyl Acids after Ceasing Exposure from Drinking Water Contaminated by Firefighting Foam” (Environmental Health Perspectives, 2020).

How the values were obtained:
[1] = PFAS levels in serum samples of airport employees (LC/MS/MS)
Excerpt: All 26 employees at the airport were invited for a blood sampling between 11 and 14 September 2018 (i.e., within 11 to 14 d after the termination of contaminated drinking-water exposure). Information on age, home address, employment history, working tasks, and sick leave and vacation days in August and September were collected by questionnaire. In addition, data on the number of glasses of water consumed per day, local fish consumption, and history of blood donation and medication were collected. For female employees, questions about menstruation, pregnancy, and duration of breast-feeding were asked.
The PFAS analysis in serum from the first sampling was immediately performed and personal results were reported to the employees. […] These 17 employees submitted four rounds of blood and first morning urine samples in parallel, at 1-month intervals. In total, there were five rounds of serum sampling (started from September) and four rounds of urine sampling (from October). For modeling of elimination, all samples were reanalyzed in a single batch. We obtained 83 serum samples with a median count of 5 (range: 4–5) samples per employee, and 59 urine samples with median of 4 (range: 1–4) samples per employee. Only one employee provided a single urine sample. The study was approved by the Regional Ethical Review Board in Lund, Sweden. All employees provided written informed consent.
Venous whole blood samples were obtained and were centrifuged for 10 min at 1,500×g at room temperature to isolate the serum on site. The serum samples were collected in 6-mL BD Vacutainer® Plus plastic serum tubes without gel (BD). Urine samples were collected in 13-mL polypropylene screw cap tubes (Sarstedt). Serum and urine samples were frozen at −20°C after sampling and transported to Lund using cold chain logistics. Serum and urine samples were stored at −80°C and −20°C , respectively, before analysis.
The serum samples, QC samples, and chemical blanks were prepared in 96-well plates with 1.5-mL flat-bottom glass vials (Biotech solutions). Serum samples were thawed for 1–2 h and mixed on a vortex shaker for approximately 10 s two times. Once after all samples were thawed and a second time before pipetting the serum to the plate. Before pipetting, the tip was pre-wetted several times, drawing a volume into the tip and dispensing it back into the tube. Sample preparation procedures for serum samples consisted of 25μL serum mixed with 25μL water, 25μL methanol, 25μL isotopically labeled internal standards in 50% acetonitrile (see Table S1), and 100μL acetonitrile. Thereafter, samples were mixed vigorous by shaking for 30 min and centrifuged at 2,600×g for 10 min at room temperature. The supernatant ( 0.2mL ) was transferred to 96-well plates with 0.5-mL conical glass vials (MicroLiter Analytical Supplies) and again centrifuged at 3,000×g for 10 min before analysis. The QC samples and chemical blanks were prepared following the same procedure as the serum samples. The calibration standards were prepared in FBS the same way as the samples, except for the addition of diluted reference standards of all analyzed compounds in 25μL of the methanol solution.
Aliquots of 4μL of the sample were analyzed using LC/MS/MS. For the analysis, a C18 column ( 4μm , 2.1mm i.d.×50mm , Genesis Lightning) was used prior to the injector to filter the mobile phases. The analytical column was an Aquity BEH ( 1.7μm , 2.1mm i.d.×100mm Waters). The mobile phases (A and B) were A: 5 mM ammonium acetate in water:methanol (50:50); and B: methanol. The mobile phase was kept at 0% B for 2.5 min after injection. A gradient was then applied over 11 min to 90% B, where it was then kept for 1.5 min. The column was then conditioned at 0% B for 2 min.

[2] = Individual serum elimination rate and half-life (linear regression per employee); settings: individual estimate;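 for HL (half-life): half-life in years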
Experimental: Serum PFAS concentrations were log-transformed. Time was calculated as the elapsed days between supply of clean bottled water and […] blood sampling. We assumed one compartment, first-order elimination kinetics. In this kinetic model, the body is considered as one homogeneous volume in which mixing is instantaneous and from which PFAS could be absorbed, transferred, and eliminated according to the rate of elimination that is proportional to the concentration of PFAS in the body. Two methods were used to estimate serum elimination rate constant (k) and half-life for each PFAS:
Method 2: For estimation of individual k, linear regression was used to derive the slope ( β ) of the logarithm of serum concentrations vs. time for each employee. The negative value of the slope ( −β ) for each individual was equivalent to the individual k, and individual serum elimination half-life was calculated as ln2/k for each PFAS. If β was positive (i.e., PFAS concentrations tended to increase over the five samplings), the half-life was not calculated.

[3] = 1st sampling (September 2018), count 17
[4] = 2nd sampling (October 2018), count 17
[5] = 3rd sampling (November, 2018), count 17
[6] = 4th sampling (December 2018), count 16
[7] = 5th sampling (January 2019), count 16
[8] = first serum samples, all 26 airport employees
[9] = median of first serum samples, all 26 airport employees

## O=S(=O)(O)C(F)(F)C(F)(F)C(F)(F)C(F)(F)C(F)(F)C(F)(F)C(F)(F)F [PFHpS, perfluoroheptane sulfonic acid]
[1]; [3]
  Serum PFAS level, 25 percentile: 0.96
  Serum PFAS level, 75 percentile: 2.5
  Serum PFAS level, Max: 6.2
  Serum PFAS level, Median: 1.6
  Serum PFAS level, Min: 0.49
[1]; [4]
  Serum PFAS level, 25 percentile: 0.95
  Serum PFAS level, 75 percentile: 2.1
  Serum PFAS level, Max: 6.1
  Serum PFAS level, Median: 1.5
  Serum PFAS level, Min: 0.45
[1]; [5]
  Serum PFAS level, 25 percentile: 0.94
  Serum PFAS level, 75 percentile: 1.9
  Serum PFAS level, Max: 6.3
  Serum PFAS level, Median: 1.4
  Serum PFAS level, Min: 0.47
[1]; [6]
  Serum PFAS level, 25 percentile: 0.93
  Serum PFAS level, 75 percentile: 2.1
  Serum PFAS level, Max: 5.9
  Serum PFAS level, Median: 1.5
  Serum PFAS level, Min: 0.35
[1]; [7]
  Serum PFAS level, 25 percentile: 1.1
  Serum PFAS level, 75 percentile: 2.2
  Serum PFAS level, Max: 6.2
  Serum PFAS level, Median: 1.5
  Serum PFAS level, Min: 0.45
[1]; all 26 airport employees
  Serum level in the first samples, median (range): 1.3 (0.28–6.2) ng/mL
[1]; employees participated in first blood sampling and repeated blood and urine sampling, N=17
  PFAS in first serum sample, median (range): 1.6 (0.49–6.2) ng/mL
[1]; employees participated in first blood sampling only, N=9, 11-14 d after end of exposure
  PFAS in first serum sample, median (range): 0.97 (0.28–1.9) ng/mL
[1]; females (N=7)
  Initial serum PFAS level, max: 2.2 ng/mL
  Initial serum PFAS level, median: 1.1 ng/mL
  Initial serum PFAS level, min: 0.49 ng/mL
[1]; [8]
  Relative composition of PFAS in serum, molar concentration basis: 1.1%
  Relative composition of PFAS in serum, weight basis: 1.2%
[1]; males (N=19)
  Initial serum PFAS level, Max: 6.2 ng/mL
  Initial serum PFAS level, Min: 0.28 ng/mL
  Initial serum PFAS level, median: 1.4 ng/mL
[1]; [9]
  Serum concentration, molar basis: 0.0029
  Serum concentration, weight basis: 1.3
[2]; subject 1, 5 samples
  Elimination rate: 0.5 yearly
  HL (half-life): 1.3 year
[2]; subject 2, 5 samples
  Elimination rate: 0.2 yearly
  HL (half-life): 3.4 year
[2]; subject 3, 5 samples
  Elimination rate: 0.2 yearly
  HL (half-life): 3.0 year
[2]; subject 4, 5 samples
  Elimination rate: 0.001 yearly
[2]; subject 5, 5 samples
  Elimination rate: −0.3 yearly
[2]; subject 6, 4 samples
  Elimination rate: 0.1 yearly
  HL (half-life): 6.1 year
[2]; subject 7, 5 samples
  Elimination rate: −0.04 yearly
[2]; subject 8, 5 samples
  Elimination rate: −0.6 yearly
[2]; subject 9, 5 samples
  Elimination rate: 0.05 yearly
  HL (half-life): 15 year
[2]; subject 10, 5 samples
  Elimination rate: 0.4 yearly
  HL (half-life): 1.8 year
[2]; subject 11, 5 samples
  Elimination rate: 1.7 yearly
  HL (half-life): 0.4 year
[2]; subject 12, 5 samples
  Elimination rate: 0.6 yearly
  HL (half-life): 1.1 year
[2]; subject 13, 5 samples
  Elimination rate: −0.2 yearly
[2]; subject 14, 4 samples
  Elimination rate: 1.0 yearly
  HL (half-life): 0.7 year
[2]; subject 15, 5 samples
  Elimination rate: 1.6 yearly
  HL (half-life): 0.4 year
[2]; subject 16, 5 samples
  Elimination rate: 0.1 yearly
  HL (half-life): 12 year
[2]; subject 17, 5 samples
  Elimination rate: 1.7 yearly
  HL (half-life): 0.4 year
